Experimental data as given in patent US9301951B2 (Ardelyx, Inc., priority 2010, dated 2016).
Marks after values point to notes of the source that are not given here.

Key:
human NaP2b (SLC34A2) = target: T1, human NaP2b (SLC34A2) (Homo sapiens, UniProt O95436); assay: Inhibition of NaP2b-mediated Pi (33P) uptake in transfected HEK293 cells, human NaP2b; format: cell-based; conditions: HEK293 cells transfected with human NaP2b, 100 uM phosphate, 0.1 nM to 30 uM, read-out: pIC50 range for human NaP2b (converted)
T1 construct: host or cells: HEK293
T1 sequence (O95436 1-690): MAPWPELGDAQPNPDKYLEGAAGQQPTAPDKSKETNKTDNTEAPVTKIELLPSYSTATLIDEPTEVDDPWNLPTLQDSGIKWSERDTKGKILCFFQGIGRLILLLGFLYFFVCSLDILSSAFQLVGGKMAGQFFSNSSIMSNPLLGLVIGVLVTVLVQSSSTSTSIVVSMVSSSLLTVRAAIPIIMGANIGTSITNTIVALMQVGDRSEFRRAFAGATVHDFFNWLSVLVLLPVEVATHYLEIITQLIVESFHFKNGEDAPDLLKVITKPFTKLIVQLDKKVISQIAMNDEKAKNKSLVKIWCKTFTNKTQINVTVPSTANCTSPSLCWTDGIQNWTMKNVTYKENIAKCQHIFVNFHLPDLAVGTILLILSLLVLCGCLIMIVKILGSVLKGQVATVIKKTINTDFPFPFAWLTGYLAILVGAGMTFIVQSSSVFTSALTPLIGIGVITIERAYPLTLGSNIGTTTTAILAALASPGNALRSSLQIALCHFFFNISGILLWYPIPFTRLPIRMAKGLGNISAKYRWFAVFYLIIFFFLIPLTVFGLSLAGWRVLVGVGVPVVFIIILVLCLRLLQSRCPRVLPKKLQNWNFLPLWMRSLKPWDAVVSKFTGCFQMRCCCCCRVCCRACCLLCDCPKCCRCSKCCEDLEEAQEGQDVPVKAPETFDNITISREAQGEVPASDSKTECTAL
Procedure: (§1) HEK293 cells were obtained from the American Type Culture collection and propagated per their instructions. Expression clones for rat and human NaP2b (SLC34A2) were obtained from Open Biosystems (Catalog numbers MRN1768-9510282, and MHS1010-99823026, respectively). The sequence of the human protein was mutated to insert a threonine after residue 37, and to introduce a N39D mutation.
The rate of phosphate (Pi) uptake into HEK293 cells was measured using a modification of the method described by Mohrmann et al. (Mohrmann, I., Mohrmann, M., Biber, J., and Murer, H. (1986) Am. J. Phys. 250(3 Pt 1):G323-30.) Transfected HEK293 cells were treated with a pharmacological agent to minimize endogenous PiT-mediated phosphate transport activity, such that the only remaining sodium-dependent phosphate transport activity is that which was bestowed by introduction of the NaP2b genes.
(§2) Cells were seeded into 96-well plates at 25,000 cells/well and cultured overnight. Lipofectamine 2000 (Invitrogen) was used to introduce the NaP2b cDNA, and the cells were allowed to approach confluence during a second overnight incubation. […] Cells were then overlayed with either choline uptake buffer or sodium uptake buffer (14 mM Tris, 137 mM sodium chloride, 5.4 mM KCl, 2.8 mM CaCl2, 1.2 mM MgSO4, 100 uM KH2PO4, PiT-silencing agent, 1 mg/mL Bovine Serum Albumin, pH 7.4) containing 6-9 uCi/mL ^33P orthophosphoric acid (Perkin Elmer) and test compound. Each compound was tested at twelve concentrations ranging from 0.1 nM to 30 uM. Assays were run in duplicate.
After incubation for 3-30 minutes at room temperature, assay mixtures were removed, and the cells were washed twice with ice cold stop solution (137 mM sodium chloride, 14 mM Tris, pH 7.4). Cells were lysed by addition of 20 μL 0.1% Tween 80 followed by 100 μL scintillation fluid, and counted using a TopCount (Perkin Elmer).
(§3) pIC50 (the negative log of the […]) values of the test compounds were calculated using GraphPad Prism.

rat NaP2b (SLC34A2) = target: T2, rat NaP2b (SLC34A2) (Rattus norvegicus, UniProt Q9JJ09); assay: Inhibition of NaP2b-mediated Pi (33P) uptake in transfected HEK293 cells, rat NaP2b; format: cell-based; conditions: HEK293 cells transfected with rat NaP2b, 100 uM phosphate, 0.1 nM to 30 uM, read-out: pIC50 range for rat Nap2b (converted)
T2 construct: host or cells: HEK293
T2 sequence (Q9JJ09 1-695): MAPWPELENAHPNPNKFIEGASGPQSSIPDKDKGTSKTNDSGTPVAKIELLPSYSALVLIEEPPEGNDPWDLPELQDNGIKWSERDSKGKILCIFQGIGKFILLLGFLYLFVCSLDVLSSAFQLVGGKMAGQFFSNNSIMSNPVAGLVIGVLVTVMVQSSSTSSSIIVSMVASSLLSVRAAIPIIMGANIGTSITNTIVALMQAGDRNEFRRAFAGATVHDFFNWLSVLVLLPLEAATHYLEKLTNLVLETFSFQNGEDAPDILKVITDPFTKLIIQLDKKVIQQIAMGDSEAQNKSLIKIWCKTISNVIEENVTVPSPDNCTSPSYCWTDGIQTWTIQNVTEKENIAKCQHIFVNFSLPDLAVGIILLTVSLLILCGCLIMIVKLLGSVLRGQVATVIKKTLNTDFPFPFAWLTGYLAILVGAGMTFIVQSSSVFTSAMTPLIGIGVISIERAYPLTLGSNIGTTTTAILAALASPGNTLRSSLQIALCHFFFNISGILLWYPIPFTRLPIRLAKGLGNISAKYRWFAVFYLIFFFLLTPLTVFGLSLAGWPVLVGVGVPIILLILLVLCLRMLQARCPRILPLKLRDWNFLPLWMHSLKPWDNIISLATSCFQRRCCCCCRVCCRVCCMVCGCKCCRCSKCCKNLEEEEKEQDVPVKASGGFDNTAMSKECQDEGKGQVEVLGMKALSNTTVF
Procedure: as §1, §2
Cells were lysed by addition of 20 μL 0.1% Tween 80 followed by 100 μL scintillation fluid, and counted using a TopCount (Perkin Elmer).
as §3

[1] = test system: 5/6 nephrectomy (5/6Nx) rat model of CKD; assay: In vivo evaluation in CKD rats (5/6 nephrectomy, 0.9% P diet, calcitriol); conditions: drug in chow
Procedure: To assess the ability of selected example compounds to impact the progression of chronic kidney disease (CKD), 5/6 nephrectomy (5/6Nx) rat model of CKD was used. […] 5/6 Nx rats were obtained from Charles River Labs (CRL, Hollister, Calif.). Upon arrival, the surgeries and extent of kidney damage in the animals were assessed by measuring serum creatinine, P, Ca, and BUN. Based on this analysis, rats with inconsistent kidney function were removed from the study and the remainder of the cohort was divided in to evenly stratified test groups. The remaining animals were then placed on the same synthetic diet used in the drug-in-chow studies (Example 350), except the P levels were adjusted to 0.9% P. Drugs are blended into this chow to achieve the required dosing rate. At this time, rats were also started on an activated Vitamin D regimen in which they were injected intraperitoneally with calcitriol at 80 ng/kg three times a week. Once a week, serum was collected via retro orbital bleeding for analysis of serum P and creatinine utilizing an ACE ALERA blood chemistry analyzer. […] Unless otherwise indicated, the data shown is from the serum collected at 2 weeks after initiation of the treatment regimen. In addition, for study #3, during the third week of the study, the animals were placed in metabolic cages for two days, and urine collected for the final 24 hours.

With `CCN(CC)c1ccc(NC(=O)c2cccc(C(=O)N(C)CCN3CCN(C(=O)N(C)CCOCCOCCOCCC(=O)N(C)C[C@H](O)[C@@H](O)[C@H](O)[C@H](O)CO)CC3)c2)c(-c2cc(C(=O)N[C@H]3CCCc4ccccc43)ccn2)c1` [Example 232, 3-N-[4-(diethylamino)-2-(4-{[(1S)-1,2,3,4-tetrahydronaphthalen-1-yl]carbamoyl}pyridin-2-yl)phenyl]-1-N-methyl-1-N-(2-{4-[methyl(2-{2-[2-(2-{methyl[(2S,3R,4R,5R)-2,3,4,5,6-pentahydroxyhexyl]carbamoyl}ethoxy)ethoxy]ethoxy}ethyl)carbamoyl]piperazin-1-yl}ethyl)benzene-1,3-dicarboxamide] the IC50 (human NaP2b (SLC34A2)) was 10 to 31.6 µM and the IC50 (rat NaP2b (SLC34A2)) was 10 to 31.6 µM.
For `CCN(CC)c1ccc(NC(=O)c2cccc(COCCOCCOCCOCCOC(=O)N(CCO)CCO)c2)c(-c2cc(C(=O)NCc3cccc(C(F)(F)F)c3)ccn2)c1` [Example 176, 1-(3-(4-(diethylamino)-2-(4-(3-(trifluoromethyl)benzylcarbamoyl)pyridin-2-yl)phenylcarbamoyl)phenyl)-2,5,8,11-tetraoxamidecan-13-yl bis(2-hydroxyethyl)carbamate], the IC50 (human NaP2b (SLC34A2)) was 1 to 7.94 µM and the IC50 (rat NaP2b (SLC34A2)) was 1 to 7.94 µM.
`CCN(CC)c1ccc(NC(=O)c2cccc(CCCOCCOCCOCCOCCOCCOCCOCCOCCOC)c2)c(-c2cc(C(=O)N[C@H]3CCCc4ccccc43)ccn2)c1` [Example 261, (S)-2-(2-(3-(2,5,8,11,14,17,20,23,26-nonaoxanonacosan-29-yl)benzamido)-5-(diethylamino)phenyl)-N-(1,2,3,4-tetrahydronaphthalen-1-yl)isonicotinamide] was tested, and the “Ser CRE” value ([1]; study 1, 2 weeks) was 1.0 mg/dL, the “Ser P” value ([1]; study 1, 2 weeks) was 9.7 mg/dL and the “FGF23, pg/mL” value ([1]; study 1, 2 weeks, serum) was >15,000 pg/mL.
For `CCN(CC)c1ccc(NC(=O)c2cccc(CSCCOCCOCCOCCOCCOCCOCCOCCOCCC(=O)O)c2)c(-c2cc(C(=O)NCc3cccc(C(F)(F)F)c3)ccn2)c1` [Example 166, 1-(3-(4-(diethylamino)-2-(4-(3-(trifluoromethyl)benzylcarbamoyl)pyridin-2-yl)phenylcarbamoyl)phenyl)-5,8,11,14,17,20,23,26-octaoxa-2-thianonacosan-29-oic acid], the “Ser CRE” value ([1]; study 2, 2 weeks) was 1.2 mg/dL, the “Ser P” value ([1]; study 2, 2 weeks) was 11 mg/dL and the “FGF23” value ([1]; study 2, 2 weeks, serum) was 100000 pg/mL. For the same compound, the “Ser CRE, mg/dL” value ([1]; study 3, 3 weeks) was 1.0^§ mg/dL, the “Ser P, mg/dL” value ([1]; study 3, 3 weeks) was 10^§ mg/dL and the “Avg % weight gain” value ([1]; study 3, 4 weeks) was 35^§§ %. The “FGF23, pg/mL” value ([1]; study 3, 4 weeks, serum) was 1.2 × 10^5§§ pg/mL.
`CCN(CC)c1ccc(NC(=O)c2cccc(CCCOCCOCCOCCOCCC(=O)N3CCN(C(=O)c4cccc(CCCOCCOCCOCCOCCC(=O)O)c4)CC3)c2)c(-c2cc(C(=O)NCc3cccc(C(F)(F)F)c3)ccn2)c1` [Example 293, 16-(3-(4-(16-(3-(4-(diethylamino)-2-(4-(3-(trifluoromethyl)benzylcarbamoyl)pyridin-2-yl)phenylcarbamoyl)phenyl)-4,7,10,13-tetraoxahexadecane)piperazine-1-carbonyl)phenyl)-4,7,10,13-tetraoxahexadecan-1-oic acid] showed an IC50 (human NaP2b (SLC34A2)) of 1 to 7.94 µM and an IC50 (rat NaP2b (SLC34A2)) of 1 to 7.94 µM.
In the case of `CCN(CC)c1ccc(NC(=O)c2cccc(COCCOCCOCCOCCOC(=O)NC(CO)(CO)CO)c2)c(-c2cc(C(=O)NCc3cccc(C(F)(F)F)c3)ccn2)c1` [Example 177, 1-(3-(4-(diethylamino)-2-(4-(3-(trifluoromethyl)benzylcarbamoyl)pyridin-2-yl)phenylcarbamoyl)phenyl)-2,5,8,11-tetraoxamidecan-13-yl 1,3-dihydroxy-2-(hydroxymethyl)propan-2-ylcarbamate], the IC50 (human NaP2b (SLC34A2)) is reported as 1 to 7.94 µM and the IC50 (rat NaP2b (SLC34A2)) is reported as 1 to 7.94 µM.
For `CCN(CC)c1ccc(NC(=O)c2cccc(Cn3ccc4c(C(=O)NCCOCCOCCOCCC(=O)O)cccc43)c2)c(-c2cc(C(=O)N[C@H]3CCCc4ccccc43)ccn2)c1` [Example 182, (S)-1-(1-(3-(4-(diethylamino)-2-(4-(1,2,3,4-tetrahydronaphthalen-1-ylcarbamoyl)pyridin-2-yl)phenylcarbamoyl)benzyl)-1H-indol-4-yl)-1-oxo-5,8,11-trioxa-2-azatetradecan-14-oic acid], the IC50 (human NaP2b (SLC34A2)) was < 1 µM and the IC50 (rat NaP2b (SLC34A2)) was < 1 µM.
`CCN(CC)c1ccc(NC(=O)c2cccc(CCCOCCOCCOCCOCCNS(=O)(=O)c3ccc(C(=O)N4CCN(CCOCCOCCOCCOCCOCCOCCOC)C(=O)C4)cc3)c2)c(-c2cc(C(=O)NCc3cccc(C(F)(F)F)c3)ccn2)c1` [Example 288, 2-(2-(3-(1-(4-(4-(2,5,8,11,14,17,20-heptaoxadocosan-22-yl)-3-oxopiperazine-1-carbonyl)phenylsulfonamido)-3,6,9,12-tetraoxapentadecan-15-yl)benzamido)-5-(diethylamino)phenyl)-N-(3-(trifluoromethyl)benzyl)isonicotinamide] gave an IC50 (human NaP2b (SLC34A2)) of 1 to 7.94 µM.
`CCN(CC)c1ccc(NC(=O)c2cccc(CCCOCCOCCOCCOCCNS(=O)(=O)c3ccc(C(=O)N(C)CCOCCOCCOCCOCCOCCOCCOC)cc3)c2)c(-c2cc(C(=O)NCc3cccc(C(F)(F)F)c3)ccn2)c1` [Example 287, 2-(2-(3-(1-(4-(2,5,8,11,14,17,20-heptaoxadocosan-22-yl(methyl)carbamoyl)phenylsulfonamido)-3,6,9,12-tetraoxapentadecan-15-yl)benzamido)-5-(diethylamino)phenyl)-N-(3-(trifluoromethyl)benzyl)isonicotinamide] showed an IC50 (human NaP2b (SLC34A2)) of 1 to 7.94 µM.
Work on `CCN(CC)c1ccc(NC(=O)c2cccc(CCCOCCOCCOCCOCCC(=O)N(C)CCOCCOCCOCCOCCOCCOCCOC)c2)c(-c2cc(C(=O)NCc3cccc(C(F)(F)F)c3)ccn2)c1` [Example 259, 2-(5-(diethylamino)-2-(3-(23-methyl-24-oxo-2,5,8,11,14,17,20,27,30,33,36-undecaoxa-23-azanonatriacontan-39-yl)benzamido)phenyl)-N-(3-(trifluoromethyl)benzyl)isonicotinamide] yielded an IC50 (human NaP2b (SLC34A2)) of 1 to 7.94 µM.
`CCN(CC)c1ccc(NC(=O)c2cccc(CS(=O)(=O)CCOCCOCCOCCOCCC(=O)O)c2)c(-c2cc(C(=O)NCc3cccc(C(F)(F)F)c3)ccn2)c1` [Example 167, 1-(((3-((4-(diethylamino)-2-[4-(((3-(trifluoromethyl)phenyl]methyl)carbamoyl)pyridin-2-yl)phenyl)carbamoyl)phenyl)methane)sulfonyl)-3,6,9,12-tetraoxapentadecan-15-oic acid] gave an IC50 (human NaP2b (SLC34A2)) of 10 to 31.6 µM and an IC50 (rat NaP2b (SLC34A2)) of 10 to 31.6 µM.
